Assay results reported in patent US20220288143A1, “PHARMACEUTICAL COMPOSITION FOR TREATING CANCER, COMPRISING VACCINIA VIRUS AND GRANULOPOIESIS INHIBITOR AS ACTIVE INGREDIENTS” (priority 2019, published 2022).

How the values were obtained:
neutrophils [1] = assay: Neutrophil count (CBC), Renca-transplanted mice, lenalidomide or hydroxyurea (Exp. Ex. 17); type: in vivo, mouse; details: day 5, 30 mg/kg i.p. daily, compared with group administered saline
Experimental: Balb/c mice (female, 8-week-old) purchased from Orient Bio (Busan, Korea) were subjected to a one-week acclimatization period, and then allografted with Renca cancer cell line (Korea Cell Line Bank) at 5×10^6 cells. After another one-week acclimatization period, the mice were divided into 3 groups (n=3) and administered intraperitoneally with saline, hydroxyurea (30 mg/kg), and lenalidomide (30 mg/kg), respectively, daily from 1 day before the administration of the oncolytic virus to day 4 after the administration.
As a result of performing a complete blood count (CBC) by sacrificing the mice in each group on day 5 after administering the oncolytic virus, it was confirmed that the neutrophil count of the mice in the group administered with lenalidomide was reduced as compared with the group administered with saline, except for one outlier mouse.

neutrophils [2] = type: in vivo, mouse; details: Renca mice; day 8; compared with negative control group (saline); hydroxyurea 30 mg/kg i.p.

SMILES | neutrophil count (neutrophils [1]) | absolute neutrophil count (ANC) (neutrophils [2])
NC(=O)NO [hydroxyurea] | significantly lower | decreased
Nc1cccc2c1CN(C1CCC(=O)NC1=O)C2=O (stereo not drawn) [lenalidomide] | reduced | 
